According to patent US5079252A, “Therapeutic compounds” (priority 1988, dated 1992):
Where two headings read alike, the source gives them in different places.

Assays:
[1] = tested on: herpes viruses; conditions: cited from earlier work
[2] = tested on: Herpes Simplex Virus (HSV 1); experiment: HSV 1 plaque reduction assay in Vero cell monolayers; type: cell-based; conditions: read-out: 50% inhibitory concentration (IC50)
Protocol: Herpes Simplex Virus (HSV 1) was assayed in monolayers of Vero cells in multiwell trays. Activity of compounds was determined in the plaque reduction assay, in which a cell monolayer was infected with a suspension of HSV 1, and then overlaid with nutrient agarose in the form of a gel to ensure that there was no spread of virus throughout the culture. A range of concentrations of compound of known molarity was incorporated in the nutrient agarose overlay. Plaque numbers at each concentration are expressed as percentages of the control and a dose-response curve was drawn. From this curve the 50% inhibitory concentration (IC50) was estimated.

[3] = cited from earlier work
[4] = background statement; cited from earlier work
[5] = Plasma levels of acyclovir after oral administration in animals; type: in vivo
[6] = Oral bioavailability in rats: urinary recovery as acyclovir after oral administration (gavage); type: in vivo, Long Evans Rates (rats)
Protocol: Long Evans Rates are administered the compound to be tested by gavage at a dose equivalent to 25 mg/kg acyclovir. The urine is collected for 24 and 48 hours post-dose, ultrafiltered, and analysed by reverse-phase high-pressure liquid chromatography. The oral bioavailability of the compound is expressed as the percent of the dose excreted in the urine as acyclovir.

Compound | antiviral activity, particularly against herpes viruses [1] | IC50 ([2]; Vero) [nM] | solubility in water [3] | absorption from the gastrointestinal tract after oral administration [4] | IC50 ([2]; HSV 1, Vero cells, plaque reduction) [nM] | levels of acyclovir in the plasma [5] | bioavailability compared with acyclovir or the esters disclosed in UK 1523865 and 1561380 ([6]; oral) | Urinary Recovery (% of dose) as acyclovir ([6]; rats, gavage, dose equivalent to 25 mg/kg acyclovir, urine 24 and 48 hours post-dose)
Nc1nc2c(ncn2COCCO)c(=O)[nH]1 [Acyclovir, 9-(2-Hydroxyethoxymethyl)guanine] | potent antiviral activity | ~100 | poorly soluble | only poorly absorbed | – | – | – | –
CCCCC(=O)OCCOCn1cnc2c(=O)[nH]c(N)nc21 [Example A, 9-(2-valeryloxyethoxymethyl)guanine] | – | – | – | – | 200 | measurable levels of acyclovir in the plasma | improved bioavailability | 34 % of dose
